Assay results: ChEMBL document CHEMBL4828751, “Discovery of novel tubulin/HDAC dual-targeting inhibitors with strong antitumor and antiangiogenic potency” (Eur J Med Chem, 2021)
Activity calls are given as the source filed them. The calls are words filed in the database; no cut-off is given here.

How the values were obtained:
MGC-803 [1] = assay: Induction of cell cycle arrest in human MGC-803 cells assessed as accumulation at G2/M phase at 7.5 nM incubated for 24 hrs by propidium iodide staining based flow cytometry (reference value: 37.03 %); assay type: functional
MGC-803 [2] = assay: Antiproliferative activity against human MGC-803 cells assessed as cell growth inhibition after 72 hrs by SRB assay; assay type: functional, cell-based; conditions: MGC-803, 72 h
HeLa = assay: Antiproliferative activity against human HeLa cells assessed as cell growth inhibition after 72 hrs by SRB assay; assay type: functional, cell-based
THP-1 = assay: Cytotoxicity against human THP-1 cells assessed as reduction in cell viability; assay type: cell-based
Tubulin = assay: Inhibition of tubulin polymerization (unknown origin) measured after 1 min by fluorescence assay; assay type: protein-complex assay, Homo sapiens; conditions: read-out: IC50
MGC-803 [3] = assay: Induction of cell cycle arrest in human MGC-803 cells assessed as accumulation at G2/M phase at 30 nM incubated for 24 hrs by propidium iodide staining based flow cytometry (reference value: 37.03 %); assay type: functional
MGC-803 [4] = assay: Induction of cell cycle arrest in human MGC-803 cells assessed as accumulation at S phase at 15 nM incubated for 24 hrs by propidium iodide staining based flow cytometry (reference value: 17.3 %); assay type: functional
MGC-803 [5] = assay: Induction of cell cycle arrest in human MGC-803 cells assessed as accumulation at G1 phase at 7.5 nM incubated for 24 hrs by propidium iodide staining based flow cytometry (reference value: 45.67 %); assay type: functional
MGC-803 [6] = assay: Induction of apoptosis in human MGC-803 cells assessed as late apoptotic cells at 7.5 nM measured after 48 hrs by Annexin V-APC/PI double staining based flow cytometry assay (reference value: 1.05 %); assay type: functional, cell-based
MGC-803 [7] = assay: Induction of apoptosis in human MGC-803 cells assessed as viable cells at 7.5 nM measured after 48 hrs by Annexin V-APC/PI double staining based flow cytometry assay (reference value: 97.1 %); assay type: functional, cell-based
MGC-803 [8] = assay: Induction of apoptosis in human MGC-803 cells assessed as late apoptotic cells at 15 nM measured after 48 hrs by Annexin V-APC/PI double staining based flow cytometry assay (reference value: 1.05 %); assay type: functional, cell-based
MGC-803 [9] = assay: Induction of apoptosis in human MGC-803 cells assessed as viable cells at 15 nM measured after 48 hrs by Annexin V-APC/PI double staining based flow cytometry assay (reference value: 92.1 %); assay type: functional, cell-based
MGC-803 [10] = assay: Induction of apoptosis in human MGC-803 cells assessed as early apoptotic cells at 30 nM measured after 48 hrs by Annexin V-APC/PI double staining based flow cytometry assay (reference value: 1.31 %); assay type: functional, cell-based
MGC-803 [11] = assay: Induction of apoptosis in human MGC-803 cells assessed as late apoptotic cells at 30 nM measured after 48 hrs by Annexin V-APC/PI double staining based flow cytometry assay (reference value: 1.05 %); assay type: functional, cell-based
MGC-803 [12] = assay: Induction of apoptosis in human MGC-803 cells assessed as necrotic cells at 30 nM measured after 48 hrs by Annexin V-APC/PI double staining based flow cytometry assay (reference value: 0.57 %); assay type: functional, cell-based
MGC-803 [13] = assay: Induction of ROS generation in human MGC-803 cells assessed as increase in intracellular ROS level incubated for 24 hrs by DCFH-DA staining based flow cytometric analysis; assay type: functional, cell-based; conditions: dose 7.5-30 nM
HUVEC [14] = assay: Antivascular activity against HUVEC assessed as inhibition of tube formation at 5 to 20 nM incubated for 48 hrs by […]; assay type: functional, cell-based; conditions: Homo sapiens, dose 5-20 nM
HUVEC [15] = assay: Inhibition of cell migration in HUVEC cells assessed as decrease in number of migrated endothelial cells at 5 to 20 nM measured after 48 hrs by transwell analysis; assay type: functional, cell-based; conditions: Homo sapiens, dose 5-20 nM
MGC-803 [16] = assay: Antiinvasive activity in human MGC-803 cells assessed as decrease in number of migrated MGC-803 cells at 7.5 to 30 nM measured after 48 hrs by transwell assay; assay type: functional, cell-based; conditions: dose 7.5-30 nM
Danio rerio = organism: Danio rerio; assay: Antiangiogenic activity in 30hpf transgenic Tg(flk:EGFP) zebra fish embryos assessed as reduction in number of intersegmental vessels by confocal fluorescence microscopy analysis; assay type: functional, organism-based; conditions: Embryo, dose 0.1-0.6 µM
MGC-803 [17] = assay: Antitumor activity against CMTPX- labeled human MGC-803 cells xenografted in zebrafish assessed as inhibition of tumor growth measured after 72 hrs by fluorescence microscopic analysis; assay type: functional, cell-based; conditions: dose 25-100 nM
MGC-803 [18] = assay: Induction of mitochondrial membrane potential loss in human MGC-803 cells at 7.5 nM after 48 hrs by JC-1 staining based flow cytometric analysis (reference value: 86 %); assay type: functional
MGC-803 [19] = assay: Induction of mitochondrial membrane potential loss in human MGC-803 cells at 30 nM after 48 hrs by JC-1 staining based flow cytometric analysis (reference value: 86 %); assay type: functional
MGC-803 [20] = assay: Induction of ROS generation in human MGC-803 cells assessed as intracellular ROS level at 30 nM incubated for 24 hrs by DCFH-DA staining based flow cytometric analysis (reference value: 2.72 %); assay type: functional
MGC-803 [21] = assay: Antitumor activity against CMTPX- labeled human MGC-803 cells xenografted in zebrafish assessed as inhibition of tumor metastasis measured after 72 hrs by fluorescence microscopic analysis; assay type: functional, cell-based; conditions: dose 25-100 nM

COc1ccc(/C=C\c2cc(OC)c(OC)c(OC)c2)cc1/C=C/C(=O)Nc1ccccc1N
Activity (MGC-803 [1]): Dose-Dependent Effect | Activity (MGC-803 [1]; record 2): 43.82% | IC50 (MGC-803 [2]): 16 nM | IC50 (HeLa): 50 nM | IC50 (THP-1): 195 nM | IC50 (Tubulin): 1000 nM | Activity (MGC-803 [3]): Dose-Dependent Effect | Activity (MGC-803 [3]; record 2): 84.19% | Activity (MGC-803 [4]): 12.7% | Activity (MGC-803 [5]): 43.58% | Activity (MGC-803 [6]): Active | Activity (MGC-803 [7]): Active | Activity (MGC-803 [8]): Active | Activity (MGC-803 [9]): Active | Activity (MGC-803 [10]): Active | Activity (MGC-803 [11]): Active | Activity (MGC-803 [12]): Active | Activity (MGC-803 [13]): Dose-Dependent Effect | Activity (HUVEC [14]): Active | inhibition (HUVEC [15]): Active | Activity (MGC-803 [16]): Active | Activity (Danio rerio): Dose-Dependent Effect | inhibition (MGC-803 [17]): Dose-Dependent Effect | Activity (MGC-803 [18]): 82.9% | Activity (MGC-803 [19]): 34.5% | Activity (MGC-803 [20]): 51.4% | inhibition (MGC-803 [21]): Dose-Dependent Effect
